Laboratory results as given in patent US10717716B2, “1,3,4-oxadiazole derivative compounds as histone deacetylase 6 inhibitor, and the pharmaceutical composition comprising the same” (Chong Kun Dang Pharmaceutical Corp., priority 2015, dated 2020).

Biological target: T1, human recombinant HDAC6 (Homo sapiens, UniProt Q9UBN7)
T1 construct: purchased Calbiochem 382180
T1 sequence (Q9UBN7 1-1215): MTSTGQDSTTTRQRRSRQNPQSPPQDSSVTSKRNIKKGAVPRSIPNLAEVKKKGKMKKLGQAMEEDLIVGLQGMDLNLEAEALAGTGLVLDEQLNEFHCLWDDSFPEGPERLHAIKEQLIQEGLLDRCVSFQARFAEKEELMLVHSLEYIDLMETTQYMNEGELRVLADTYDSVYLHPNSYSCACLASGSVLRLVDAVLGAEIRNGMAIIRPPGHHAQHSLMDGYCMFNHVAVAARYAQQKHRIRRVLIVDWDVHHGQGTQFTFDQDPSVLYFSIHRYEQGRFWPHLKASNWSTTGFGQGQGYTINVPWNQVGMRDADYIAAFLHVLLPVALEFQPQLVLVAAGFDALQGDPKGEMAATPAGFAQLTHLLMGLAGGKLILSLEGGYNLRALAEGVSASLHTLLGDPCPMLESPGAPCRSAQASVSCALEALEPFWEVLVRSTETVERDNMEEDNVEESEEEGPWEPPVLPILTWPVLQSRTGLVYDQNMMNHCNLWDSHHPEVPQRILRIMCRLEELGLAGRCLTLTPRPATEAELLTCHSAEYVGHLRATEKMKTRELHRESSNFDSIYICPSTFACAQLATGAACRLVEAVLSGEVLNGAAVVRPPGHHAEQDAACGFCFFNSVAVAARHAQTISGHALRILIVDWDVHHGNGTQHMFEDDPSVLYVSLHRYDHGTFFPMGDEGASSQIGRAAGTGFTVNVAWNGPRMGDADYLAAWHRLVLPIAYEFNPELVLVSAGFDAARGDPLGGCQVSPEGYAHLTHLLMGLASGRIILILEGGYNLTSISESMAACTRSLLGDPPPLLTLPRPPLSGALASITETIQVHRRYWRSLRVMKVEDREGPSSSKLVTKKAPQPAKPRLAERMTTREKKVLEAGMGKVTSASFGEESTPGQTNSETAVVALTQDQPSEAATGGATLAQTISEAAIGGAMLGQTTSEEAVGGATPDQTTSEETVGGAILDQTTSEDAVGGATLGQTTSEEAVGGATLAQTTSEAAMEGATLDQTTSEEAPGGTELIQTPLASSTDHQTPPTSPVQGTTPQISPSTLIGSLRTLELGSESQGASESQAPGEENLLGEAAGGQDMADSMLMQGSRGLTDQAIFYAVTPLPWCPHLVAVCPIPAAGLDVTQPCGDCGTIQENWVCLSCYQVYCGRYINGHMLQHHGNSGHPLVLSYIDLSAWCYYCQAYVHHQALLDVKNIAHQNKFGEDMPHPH
Assay: HDAC6 enzyme activity inhibition assay (HDAC Fluorimetric Drug Discovery Kit)
Type: biochemical
Details: for HDAC6 selectivity (fold): HDAC6 over HDAC1; for IC50: human recombinant HDAC6, same protocol as HDAC1, read-out: HDAC6
Summary of the method: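 Fluorimetric deacetylase assay: 5-fold serial compound dilutions, 0.3 μg recombinant human enzyme (HDAC1 or HDAC6, same protocol), 10 μM Fluor de Lys-SIRT1 substrate, 60 min at 30 °C. Signal developed 30 min, measured at 360/460 nm; IC50 values derived.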

SMILES	HDAC6 selectivity (fold)	IC50 [nM]
O=C(N1CCOCC1)N(Cc1ccc(-c2nnc(C(F)(F)F)o2)cc1)c1ccc(F)cc1 [Compound 21426, N-(4-fluorophenyl)-N-(4-(5-(trifluoromethyl)-1,3,4-oxadiazol-2-yl)benzyl)morpholine-4-carboxamide]	20	489
O=C(N1CCOCC1)N(Cc1ccc(-c2nnc(C(F)(F)F)o2)cc1)c1cccnc1 [Compound 21427, N-(pyridin-3-yl)-N-(4-(5-(trifluoromethyl)-1,3,4-oxadiazol-2-yl)benzyl)morpholine-4-carboxamide]	79	126
O=C(N1CCOCC1)N(Cc1ccc(-c2nnc(C(F)(F)F)o2)cc1Cl)c1ccccc1 [Compound 21429, N-(2-chloro-4-(5-(trifluoromethyl)-1,3,4-oxadiazol-2-yl)benzyl)-N-phenylmorpholine-4-carboxamide]	5	2080
O=C(N1CCOCC1)N(Cc1c(F)cc(-c2nnc(C(F)F)o2)cc1F)c1ccccc1 [Compound 21432, N-(4-(5-(difluoromethyl)-1,3,4-oxadiazol-2-yl)-2,6-difluorobenzyl)-N-phenylmorpholine-4-carboxamide]	208	48
CS(=O)(=O)c1ccc(N(Cc2ccc(-c3nnc(C(F)F)o3)cc2)C(=O)N2CCOCC2)cc1 [Compound 21444, N-(4-(5-(difluoromethyl)-1,3,4-oxadiazol-2-yl)benzyl)-N-(4-(methylsulfonyl)phenyl)morpholine-4-carboxamide]	57	175
Cc1ccc(N(Cc2ccc(-c3nnc(C(F)F)o3)cc2)C(=O)N2CCS(=O)(=O)CC2)cc1 [Compound 21446, N-(4-(5-(difluoromethyl)-1,3,4-oxadiazol-2-yl)benzyl)-N-(p-tolyl)thiomorpholine-4-carboxamide 1,1-dioxide]	115	87
O=C(N1CCS(=O)(=O)CC1)N(Cc1ccc(-c2nnc(C(F)F)o2)cc1)c1ccccc1C(F)(F)F [Compound 21450, N-(4-(5-(difluoromethyl)-1,3,4-oxadiazol-2-yl)benzyl)-N-(2-(trifluoromethyl)phenyl)thiomorpholine-4-carboxamide 1,1-dioxide]	19	530
Cc1ccccc1N(Cc1ccc(-c2nnc(C(F)F)o2)cc1)C(=O)N1CCS(=O)(=O)CC1 [Compound 21452, N-(4-(5-(difluoromethyl)-1,3,4-oxadiazol-2-yl)benzyl)-N-(o-tolyl)thiomorpholine-4-carboxamide 1,1-dioxide]	93	108
COc1ccc(N(Cc2ccc(-c3nnc(C(F)(F)F)o3)cn2)C(=O)N2CCS(=O)(=O)CC2)cc1 [Compound 21454, N-(4-methoxyphenyl)-N-((5-(5-(trifluoromethyl)-1,3,4-oxadiazol-2-yl)pyridin-2-yl)methyl)thiomorpholine-4-carboxamide 1,1-dioxide]	94	106
COc1ccc(N(Cc2ccc(-c3nnc(C(F)F)o3)cn2)C(=O)N2CCS(=O)(=O)CC2)cc1 [Compound 21455, N-((5-(5-(difluoromethyl)-1,3,4-oxadiazol-2-yl)pyridin-2-yl)methyl)-N-(4-methoxyphenyl)thiomorpholine-4-carboxamide 1,1-dioxide]	294	34

More lines, in order of falling IC50, values ahead:

HDAC6 selectivity (fold)	IC50 [nM]	SMILES
7	1530	O=C(N1CCS(=O)(=O)CC1)N(Cc1ccc(-c2nnc(C(F)(F)F)o2)cc1)c1ccccc1C(F)(F)F [Compound 21449, N-(4-(5-(trifluoromethyl)-1,3,4-oxadiazol-2-yl)benzyl)-N-(2-(trifluoromethyl)phenyl)thiomorpholine-4-carboxamide 1,1-dioxide]
17	578	O=C(N1CCS(=O)(=O)CC1)N(Cc1ccc(-c2nnc(C(F)(F)F)o2)cc1)c1cccc(C(F)(F)F)n1 [Compound 21456, N-(4-(5-(trifluoromethyl)-1,3,4-oxadiazol-2-yl)benzyl)-N-(6-(trifluoromethyl)pyridin-2-yl)thiomorpholine-4-carboxamide 1,1-dioxide]
30	333	Cc1ccccc1N(Cc1ccc(-c2nnc(C(F)(F)F)o2)cc1)C(=O)N1CCS(=O)(=O)CC1 [Compound 21451, N-(o-tolyl)-N-(4-(5-(trifluoromethyl)-1,3,4-oxadiazol-2-yl)benzyl)thiomorpholine-4-carboxamide 1,1-dioxide]
33	303	Cc1ccc(N(Cc2ccc(-c3nnc(C(F)(F)F)o3)cc2)C(=O)N2CCS(=O)(=O)CC2)cc1 [Compound 21445, N-(p-tolyl)-N-(4-(5-(trifluoromethyl)-1,3,4-oxadiazol-2-yl)benzyl)thiomorpholine-4-carboxamide 1,1-dioxide]
37	267	COc1ccccc1N(Cc1ccc(-c2nnc(C(F)(F)F)o2)cc1)C(=O)N1CCS(=O)(=O)CC1 [Compound 21440, N-(2-methoxyphenyl)-N-(4-(5-(trifluoromethyl)-1,3,4-oxadiazol-2-yl)benzyl)thiomorpholine-4-carboxamide 1,1-dioxide]
39	256	O=C(N1CCOCC1)N(Cc1c(F)cc(-c2nnc(C(F)(F)F)o2)cc1F)c1ccccc1 [Compound 21431, N-(2,6-difluoro-4-(5-(trifluoromethyl)-1,3,4-oxadiazol-2-yl)benzyl)-N-phenylmorpholine-4-carboxamide]
53	190	O=C(N1CCS(=O)(=O)CC1)N(Cc1ccc(-c2nnc(C(F)F)o2)cc1)c1cccc(C(F)(F)F)n1 [Compound 21457, N-(4-(5-(difluoromethyl)-1,3,4-oxadiazol-2-yl)benzyl)-N-(6-(trifluoromethyl)pyridin-2-yl)thiomorpholine-4-carboxamide 1,1-dioxide]
53	188	Cc1ccc(N(Cc2ccc(-c3nnc(C(F)(F)F)o3)cc2)C(=O)N2CCS(=O)(=O)CC2)c(F)c1 [Compound 21434, N-(2-fluoro-4-methylphenyl)-N-(4-(5-(trifluoromethyl)-1,3,4-oxadiazol-2-yl)benzyl)thiomorpholine-4-carboxamide 1,1-dioxide]
75	134	O=C(N1CCOCC1)N(Cc1ccc(-c2nnc(C(F)(F)F)o2)cc1)c1ccccc1F [Compound 21428, N-(2-fluorophenyl)-N-(4-(5-(trifluoromethyl)-1,3,4-oxadiazol-2-yl)benzyl)morpholine-4-carboxamide]
85	117	COc1ccc(N(Cc2ccc(-c3nnc(C(F)F)o3)cc2)C(=O)N2CCS(=O)(=O)CC2)cc1 [Compound 21453, N-(4-(5-(difluoromethyl)-1,3,4-oxadiazol-2-yl)benzyl)-N-(4-methoxyphenyl)thiomorpholine-4-carboxamide 1,1-dioxide]
172	58	O=C(N1CCS(=O)(=O)CC1)N(Cc1ccc(-c2nnc(C(F)(F)F)o2)cc1)c1ccc(F)cc1F [Compound 21433, N-(2,4-difluorophenyl)-N-(4-(5-(trifluoromethyl)-1,3,4-oxadiazol-2-yl)benzyl)thiomorpholine-4-carboxamide 1,1-dioxide]
196	51	O=C(N1CCS(=O)(=O)CC1)N(Cc1ccc(-c2nnc(C(F)(F)F)o2)cc1)c1ccccc1F [Compound 21447, N-(2-fluorophenyl)-N-(4-(5-(trifluoromethyl)-1,3,4-oxadiazol-2-yl)benzyl)thiomorpholine-4-carboxamide 1,1-dioxide]
278	36	O=C(N1CCS(=O)(=O)CC1)N(Cc1ccc(-c2nnc(C(F)F)o2)cc1)c1ccccc1F [Compound 21448, N-(4-(5-(difluoromethyl)-1,3,4-oxadiazol-2-yl)benzyl)-N-(2-fluorophenyl)thiomorpholine-4-carboxamide 1,1-dioxide]
